ChEMBL document CHEMBL4402510, “Caprazamycins: Promising lead structures acting on a novel antibacterial target MraY” (Eur J Med Chem, 2019)
Converted amounts (≈) assume the structure as drawn.

Legend:
[1] = test system: Enterococcus faecium; test: Antibacterial activity against Enterococcus faecium ATCC 19434; format: functional
[2] = test system: Haemophilus influenzae; test: Antibacterial activity against Haemophilus influenzae ATCC 10211; format: functional
[3] = test system: Enterococcus faecalis; test: Antibacterial activity against Enterococcus faecalis ATCC 29212; format: functional
[4] = test system: Enterococcus faecalis; test: Antibacterial activity against Enterococcus faecalis SR7914 (VRE); format: functional
[5] = biological target: T1, Phospho-N-acetylmuramoyl-pentapeptide-transferase (Staphylococcus aureus, UniProt P0C1R8); test: Inhibition of MraY in Staphylococcus aureus
T1 sequence (P0C1R8 whole entry): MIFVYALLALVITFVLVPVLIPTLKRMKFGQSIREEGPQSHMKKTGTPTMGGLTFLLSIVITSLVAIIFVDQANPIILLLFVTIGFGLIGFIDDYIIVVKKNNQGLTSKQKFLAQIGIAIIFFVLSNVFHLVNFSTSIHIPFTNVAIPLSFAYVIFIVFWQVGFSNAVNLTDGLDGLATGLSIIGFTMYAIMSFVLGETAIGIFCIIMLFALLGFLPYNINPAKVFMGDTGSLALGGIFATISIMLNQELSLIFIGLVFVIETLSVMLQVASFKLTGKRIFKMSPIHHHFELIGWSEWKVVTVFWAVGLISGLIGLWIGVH

[6] = test system: Staphylococcus aureus; test: Antibacterial activity against methicillin susceptible Staphylococcus aureus ATCC 29213; format: functional
[7] = test system: Staphylococcus aureus; test: Antibacterial activity against methicillin resistant Staphylococcus aureus SR3637; format: functional
[8] = test system: Enterococcus faecium; test: Antibacterial activity against Enterococcus faecium SR7917 (VRE); format: functional
[9] = test system: Streptococcus pneumoniae; test: Antibacterial activity against Streptococcus pneumoniae; format: functional
[10] = test system: Escherichia coli; test: Antibacterial activity against Escherichia coli ATCC 25922; format: functional
[11] = test system: Acinetobacter baumannii; test: Antibacterial activity against Acinetobacter baumannii ATCC 19606; format: functional; conditions: ATCC 19606 = CIP 70.34 = JCM 6841
[12] = test system: Pseudomonas aeruginosa; test: Antibacterial activity against Pseudomonas aeruginosa PAO1 deltamexB; format: functional
[13] = test system: Pseudomonas aeruginosa; test: Antibacterial activity against Pseudomonas aeruginosa YY165; format: functional
[14] = test system: Enterococcus faecalis; test: Antibacterial activity against t Enterococcus faecalis after 20 hrs by NCCLS-based two-fold broth dilution method; format: functional; conditions: read-out: MIC
[15] = test system: Enterococcus faecalis; test: Antibacterial activity against t Enterococcus faecalis VRE after 20 hrs by NCCLS-based two-fold broth dilution method; format: functional; conditions: read-out: MIC
[16] = test system: Staphylococcus aureus; test: Antibacterial activity against methicillin resistant Staphylococcus aureus after 20 hrs by NCCLS-based two-fold broth dilution method; format: functional; conditions: read-out: MIC
[17] = test system: Staphylococcus aureus; test: Antibacterial activity against methicillin susceptible Staphylococcus aureus after 20 hrs by NCCLS-based two-fold broth dilution method; format: functional; conditions: read-out: MIC
[18] = test system: Enterococcus faecium; test: Antibacterial activity against t Enterococcus faecium after 20 hrs by NCCLS-based two-fold broth dilution method; format: functional
[19] = test system: Enterococcus faecium; test: Antibacterial activity against t Enterococcus faecium VRE after 20 hrs by NCCLS-based two-fold broth dilution method; format: functional; conditions: read-out: MIC
[20] = test system: Escherichia coli; test: Antibacterial activity against Escherichia coli after 20 hrs by NCCLS-based two-fold broth dilution method; format: functional
[21] = test system: Haemophilus influenzae; test: Antibacterial activity against Haemophilus influenzae after 20 hrs by NCCLS-based two-fold broth dilution method; format: functional
[22] = test system: Mycolicibacterium smegmatis; test: Antibacterial activity against Mycobacterium smegmatis; format: functional
[23] = test system: Mycobacterium tuberculosis; test: Antibacterial activity against Mycobacterium tuberculosis; format: functional
[24] = test system: Mycobacterium avium; test: Antibacterial activity against Mycobacterium avium; format: functional
[25] = test system: Mycobacterium intracellulare; test: Antibacterial activity against Mycobacterium intracellulare; format: functional
[26] = biological target: T2, Phospho-N-acetylmuramoyl-pentapeptide-transferase (Bacillus subtilis (strain 168), UniProt Q03521); test: Inhibition of MraY in Bacillus subtilis
T2 sequence (Q03521 whole entry): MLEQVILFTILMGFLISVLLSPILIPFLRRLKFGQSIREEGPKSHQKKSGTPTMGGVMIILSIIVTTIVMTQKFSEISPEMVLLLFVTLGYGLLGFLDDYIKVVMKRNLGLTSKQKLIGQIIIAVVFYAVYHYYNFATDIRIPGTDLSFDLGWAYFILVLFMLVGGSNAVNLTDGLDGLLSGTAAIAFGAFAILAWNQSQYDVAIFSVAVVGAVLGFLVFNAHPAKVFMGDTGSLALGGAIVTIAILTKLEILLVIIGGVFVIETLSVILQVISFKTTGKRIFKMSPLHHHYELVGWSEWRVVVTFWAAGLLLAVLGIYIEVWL

[27] = test system: Escherichia coli; test: Antibacterial activity against Escherichia coli ATCC 8730; format: functional
[28] = test system: Citrobacter freundii; test: Antibacterial activity against Citrobacter freundii ATCC 8090; format: functional
[29] = test system: Pseudomonas aeruginosa; test: Antibacterial activity against Pseudomonas aeruginosa ATCC 27853; format: functional
[30] = test system: Staphylococcus aureus; test: Antibacterial activity against Staphylococcus aureus ATCC 25923; format: functional
[31] = test system: Staphylococcus aureus; test: Antibacterial activity against methicillin resistant Staphylococcus aureus ATCC 43300; format: functional

Row | SMILES | MIC [1] [µg/mL] | MIC [2] [µg/mL] | MIC [3] [µg/mL] | MIC [4] [µg/mL] | IC50 [5] [mM] | MIC [6] [µg/mL] | MIC [7] [µg/mL] | MIC [8] [µg/mL] | MIC [9] [µg/mL] | MIC [10] [µg/mL] | MIC [11] [µg/mL] | MIC [12] [µg/mL] | MIC [13] [µg/mL] | also measured
1 | CC(=O)N[C@H]1CCN[C@H]([C@H](O[C@@H]2O[C@H](CN)[C@@H](O)[C@H]2O)[C@H]2O[C@@H](n3ccc(=O)[nH]c3=O)[C@H](O)[C@@H]2O)C1 | > 64 | > 64 | > 64 | > 64 | 4 | > 64 | > 64 | > 64 | > 64 | > 64 | > 64 | > 64 | > 64 | –
2 | CC(=O)N[C@@H]1CCN[C@@H]([C@@H](O[C@@H]2O[C@H](CN)[C@@H](O)[C@H]2O)[C@H]2O[C@@H](n3ccc(=O)[nH]c3=O)[C@H](O)[C@@H]2O)C1 | > 64 | > 64 | > 64 | > 64 | > 4.2 | > 64 | > 64 | > 64 | > 64 | > 64 | > 64 | > 64 | > 64 | –
3 | CCCCCCCCCCCCCCCC(=O)N[C@@H]1CCN[C@@H]([C@@H](O[C@@H]2O[C@H](CN)[C@@H](O)[C@H]2O)[C@H]2O[C@@H](n3ccc(=O)[nH]c3=O)[C@H](O)[C@@H]2O)C1 | 32 (≈ 45 µM) | > 64 | 32 (≈ 45 µM) | 32 (≈ 45 µM) | > 2.7 | 16 (≈ 22.5 µM) | 32 (≈ 45 µM) | 16 (≈ 22.5 µM) | 64 (≈ 89.9 µM) | 32 (≈ 45 µM) | > 64 | > 64 | > 64 | MIC [14]: 32 µg/mL (≈ 45 µM); MIC [15]: 32 µg/mL (≈ 45 µM); MIC [16]: 32 µg/mL (≈ 45 µM); MIC [17]: 16 µg/mL (≈ 22.5 µM); MIC [18]: 32 µg/mL (≈ 45 µM); MIC [19]: 16 µg/mL (≈ 22.5 µM); MIC [20]: 32 µg/mL (≈ 45 µM)
4 | CCCCCCCCCCCCCCCC(=O)OC[C@@H]1[C@H](C(N)=O)[C@H]([C@H]2O[C@@H](n3ccc(=O)[nH]c3=O)[C@H](O)[C@@H]2O)ON1CCCN | – | – | – | – | – | – | – | – | – | – | – | – | – | MIC [21]: 0.25 to 0.5 µg/mL (≈ 0.382 to 0.765 µM); MIC [14]: 16 µg/mL (≈ 24.5 µM); MIC [15]: 4 to 8 µg/mL (≈ 6.12 to 12.2 µM)
5 | CCCCCCCCCCC[C@@H](CC(=O)O[C@H]1CN(C)[C@@H]([C@H](O[C@@H]2O[C@H](CN)[C@@H](O)[C@H]2O)[C@H]2O[C@@H](n3ccc(=O)[nH]c3=O)[C@H](O)[C@@H]2O)C(=O)N(C)[C@@H]1C(=O)O)OC(=O)C[C@H](C)CC(=O)O[C@@H]1O[C@@H](C)[C@H](OC)[C@@H](OC)[C@H]1OC | – | – | – | – | – | – | – | – | – | – | – | – | – | MIC [22]: 0.39 to 1.56 µg/mL (≈ 0.349 to 1.4 µM); MIC [23]: 0.78 µg/mL (≈ 0.698 µM); MIC [24]: < 0.025 µg/mL; MIC [25]: 0.78 µg/mL (≈ 0.698 µM)
6 | CC(=O)N[C@H]1CCN[C@H]([C@@H](O[C@@H]2O[C@H](CN)[C@@H](O)[C@H]2O)[C@H]2O[C@@H](n3ccc(=O)[nH]c3=O)[C@H](O)[C@@H]2O)C1 | > 64 | > 64 | > 64 | > 64 | > 4.2 | > 64 | > 64 | > 64 | > 64 | > 64 | > 64 | > 64 | > 64 | –
7 | NC[C@H]1O[C@@H](O[C@@H](c2cn(CCCCCOc3ccc(C(=O)c4ccccc4)cc3)nn2)[C@H]2O[C@@H](n3ccc(=O)[nH]c3=O)[C@H](O)[C@@H]2O)[C@H](O)[C@@H]1O | > 128 | – | – | – | – | – | – | – | – | – | – | – | – | IC50 [26]: 0.1 mM; MIC [27]: > 128 µg/mL; MIC [28]: > 128 µg/mL; MIC [29]: > 128 µg/mL; MIC [30]: > 128 µg/mL; MIC [31]: 64 µg/mL (≈ 90.3 µM)
